Reference: patent publication US10138250B2, “Salt of pyrrolo[2,3-D]pyrimidine compound and novel polymorph of salt” (Crystal Pharmatech Co., Ltd., priority 2014, dated 2018)
“Also recorded” adds a separate entry of the source. Like-named read-outs stand apart in the source and are kept apart here.

How the values were obtained:
[1] = Dynamic Vapor Sorption (DVS) hygroscopicity test with XRPD before and after; assay type: physicochemical; details: for solid form change after hygroscopicity test (XRPD): XRPD before and after DVS 0-95% RH cycle; for Change after DVS: XRPD before and after DVS
Experimental: Dynamic Vapor Sorption (DVS) was measured via a SMS (Surface Measurement Systems) DVS Intrinsic. Typical Parameters for DVS test are listed below.
Gas and flow rate: N2, 200 mL/min
RH range: 0% RH to 95% RH
About 10.0 mg of hemi-succinate Form A was analyzed by DVS. The solid form was tested by XRPD before and after DVS.
About hygroscopicity characterization description and definition of hygroscopicity (Chinese Pharmacopoeia 2010 edition appendix XIXJ Drug hygroscopic test guidelines, test at 25° C.+/−1° C., 80% Relative Humidity)
About 10 mg of mono-succinate Form I of the present invention and non-hydrate form in patent CN103201275A were analyzed by DVS. The solid was tested by XRPD before and after hygroscopicity test.
The solid was tested by XRPD before and after hygroscopicity test.

[2] = Conversion of mono-succinate non-hydrate form to hemi-succinate Form A by stirring in solvents; assay type: physicochemical; details: cell continues 'Form A'
Experimental: About 10 mg of the non-hydrate form in patent CN103201275A as starting form was added in different solvents or mixed solvents (v/v), then stirred at 5˜50° C. for about 48 hours.

[3] = Conversion of mono-succinate non-hydrate form to Form I by stirring in solvents at different temperatures; assay type: physicochemical; details: cell continues 'Form I'
Experimental: About 10 mg of the non-hydrate form in patent CN103201275A as starting form was added in different solvents or mixed solvents (v/v), then stirred at 5-50° C. for about 48 hours. Finally, the starting form converted to Form I. Solvents and temperature used in this example is in the following in table 6.

[4] = data in patent CN103201275A, cited from earlier work
[5] = Storage stability of crystalline salt forms (XRPD, HPLC purity); assay type: physicochemical; details: 30 days; for Solid Form after storage: XRPD
Experimental: Two samples prepared by example 9, example 11 and example 13 were stored for 30 days under 25° C./60% RH and 40° C./75% RH.

SMILES: CN(C)C(=O)c1cc2cnc(Nc3ccc(N4CCNCC4)cn3)nc2n1C1CCCC1.O=C(O)CCC(=O)O
- Water absorption at 25° C./95% RH ([1]; DVS): 18.3%
- water adsorbed at 25° C./95% RH ([1]; DVS): 18.3%
- solid form change after hygroscopicity test (XRPD) [1]: changed
- Change after DVS ([1]; listed as non-hydrate form in patent CN103201275A): changed
- Final Form ([2]; Acetone:water = 20:1, stirred at 5˜50° C. about 48 hours): hemi-succinate
- Final Form ([2]; Ethanol:water = 20:1, stirred at 5˜50° C. about 48 hours): hemi-succinate
- Final Form ([2]; Ethyl acetate, stirred at 5˜50° C. about 48 hours): hemi-succinate
- Final Form ([2]; Tetrahydrofuran:water = 20:1, stirred at 5˜50° C. about 48 hours): hemi-succinate
- Final Form ([3]; 5° C., Ethanol:n-heptane = 4:1, about 48 hours): mono-succinate
- Final Form ([3]; 50° C., Acetonitrile:water = 20:1, about 48 hours): mono-succinate
- Final Form ([3]; 50° C., THF:Methanol = 20:1, about 48 hours): mono-succinate
- Final Form ([3]; RT, Ethanol:n-heptane = 4:1, about 48 hours): mono-succinate
- share of non-hydrate form converted to hydrate form ([4]; 25° C./80% RH): 0.52%
- share of non-hydrate form converted to hydrate form ([4]; 25° C./90% RH): 7.35%
- water adsorbed at 25° C./90% RH ([4]; 25° C./90% RH): 2.0%

SMILES: CN(C)C(=O)c1cc2cnc(Nc3ccc(N4CCNCC4)cn3)nc2n1C1CCCC1.O=C(O)CCCCC(=O)O [adipate Form A]
- Water absorption at 25° C./95% RH ([1]; DVS): 0.7%
- Change after DVS [1]: did not change; also recorded: No change
- HPLC Purity after storage ([5]; 25° C./60% RH): 99.1%
- Solid Form after storage ([5]; 25° C./60% RH): No Change
- HPLC Purity after storage ([5]; 40° C./75% RH): 98.9%
- Solid Form after storage ([5]; 40° C./75% RH): No Change

SMILES: CN(C)C(=O)c1cc2cnc(Nc3ccc(N4CCNCC4)cn3)nc2n1C1CCCC1.O=C(O)CO [glycollate Form A]
- Water absorption at 25° C./95% RH ([1]; DVS): 1.2%
- Change after DVS [1]: did not change; also recorded: No change
- HPLC Purity after storage ([5]; 25° C./60% RH): 99.7%
- Solid Form after storage ([5]; 25° C./60% RH): No Change
- HPLC Purity after storage ([5]; 40° C./75% RH): 99.6%
- Solid Form after storage ([5]; 40° C./75% RH): No Change

SMILES: CN(C)C(=O)c1cc2cnc(Nc3ccc(N4CCNCC4)cn3)nc2n1C1CCCC1.CN(C)C(=O)c1cc2cnc(Nc3ccc(N4CCNCC4)cn3)nc2n1C1CCCC1.O=C(O)CCC(=O)O [hemi-succinate Form A]
- weight gain at 80% RH ([1]; DVS, 25° C., 80% RH): 3.5%
- hygroscopicity class ([1]; DVS, 80% RH): slightly hygroscopic (increase in mass is less than 2 percent and equal to or greater than 0.2 percent)

SMILES: CN(C)C(=O)c1cc2cnc(Nc3ccc(N4CCNCC4)cn3)nc2n1C1CCCC1.O=C(O)/C=C\C(=O)O [maleate Form A]
- Water absorption at 25° C./95% RH ([1]; DVS): 3.4%
- Change after DVS [1]: did not change; also recorded: No change
- HPLC Purity after storage ([5]; 25° C./60% RH): 99.3%
- Solid Form after storage ([5]; 25° C./60% RH): No Change
- HPLC Purity after storage ([5]; 40° C./75% RH): 99.3%
- Solid Form after storage ([5]; 40° C./75% RH): No Change

SMILES: CN(C)C(=O)c1cc2cnc(Nc3ccc(N4CCNCC4)cn3)nc2n1C1CCCC1.O=C(O)CCC(=O)O [mono-succinate Form I]
- water adsorbed at 25° C./90% RH ([1]; DVS, 25° C./90% RH): 1.7%
- water adsorbed at 25° C./95% RH ([1]; DVS, listed as Form I): 4.0%
- solid form change after hygroscopicity test (XRPD) ([1]; listed as Form I): did not change
